{
  "source": "patent US20210267886A1",
  "about": "“Gel-In-Oil Emulsion and Transdermally Absorbed Agent” (Nippon Shokubai Co., Ltd., priority 2018, published 2021)",
  "test_system": "L929 cell-embedded collagen gel (cultured dermis model)",
  "assay": "Titer evaluation using cultured dermis model (quantification of DNA)",
  "assay_type": "cell-based",
  "description": "Ultrapure water was added to a collagen made of pig skin (manufactured by NH Foods Ltd.), and the obtained mixture was stirred overnight at 4° C. to prepare a 1% collagen solution. A L929 cell suspension (obtained by collecting cultured L929 cells and suspending the collected L929 cells in a culture medium) (6×10^5 cells) was centrifuged at 1000 rpm for 3 minutes, and the supernatant was removed by suction. A 20% fetal bovine serum (Fetal Bovine Serum, manufactured by FBS bio sera) was added to a Dulbecco's Modified Eagle Medium (DMEM) (manufactured by Thermo Fisher Scientific Inc.) prepared at a concentration of twice to prepare a 2-fold concentrated DMEM culture medium. L929 cells were suspended in a solution in which the 1% collagen solution and the 2-fold concentrated DMEM culture medium were mixed at a ratio of 1:1. This suspension was added to a 12-well plate at 1 ml/well, and was left to stand in an incubator for 1 hour to allow the suspension to turn into a gel.\nA ring made of polycarbonate (outer diameter: 1.4 cm, inner diameter: 1.2 cm, and height: 0.3 cm) was placed on a L929 cell-embedded collagen gel (cultured dermis model) prepared in Synthesis Example 1. 200 μl of the bFGF-containing G/O emulsion described above was added to the inside the ring. 200 μl of DMEM culture medium was added to the outside of the ring, and the gel was placed in an incubator. The culture medium was changed every day, and the amounts of DNA in the L929 cell-embedded collagen gel after 1 day, 3 days, and 5 days were quantified. The quantification of DNA was performed as follows.\nA liquid in which 1 ml of 0.25% collagenase solution (manufactured by Wako Pure Chemical Industries, Ltd.) was added to a L929 cell-embedded collagen gel was referred to as liquid E. A liquid in which a gel was dissolved by shaking the gel at 37° C. for around 1 hour was referred to as liquid F. Each sample was centrifuged at 1000 rpm for 3 minutes, and the supernatant was removed by suction. Triton X-100 (manufactured by Sigma) was added to the above-described PBS to prepare 0.1% Triton X-100-containing PBS, and the sample was suspended in 1 ml of the 0.1% Triton X-100-containing PBS. The obtained suspension was frozen at −80° C., and then thawed at room temperature. This operation was repeated 3 times. 180 μl of Hoechst (Hoechst (registered trademark), manufactured by Thermo Fisher Scientific K.K.) was mixed with 20 μl of sample, and the obtained mixture was added in a 96-well black plate. By using Fluorescent DNA Quantitation Kit Cat. #170-2480 (BIO-RAD), the quantification of DNA was performed with fluorescent brightness measurement under the conditions of an excitation filter of 355 nm and an absorption filter of 460 nm. The fluorescent brightness was measured 3 times, and the average was taken to obtain the amount of DNA. The quantification of DNA was performed before the start of the test (0 day), and 1 day, 3 days, 5 days, and 7 days after the start of the test.",
  "data": [
    {"substance": "Comparative Example 3: bFGF (basic fibroblast growth factor) used as it was", "values": [
      {"measurement": "Amount of DNA", "setting": "0 Day (before the start of the test)", "value": 43, "unit": "ng"},
      {"measurement": "Amount of DNA", "setting": "After 1 day, 200 μl sample", "value": 74, "unit": "ng"},
      {"measurement": "Amount of DNA", "setting": "After 3 days, 200 μl sample", "value": 145, "unit": "ng"},
      {"measurement": "Amount of DNA", "setting": "After 5 days, 200 μl sample", "value": 187, "unit": "ng"},
      {"measurement": "Amount of DNA", "setting": "After 7 days, 200 μl sample", "value": 192, "unit": "ng"}
    ]}
  ]
}
